This note sets out measurements from patent US20100178651A1, “Bifunctional Predictors of Cancer Treatment Sensitivity and Resistance” (priority 2006, published 2010).

Experiment [1] deals with ER-positive breast cancer. In words: 5 years of adjuvant tamoxifen in patients with ER-positive breast cancer: distant relapse. To be noted: for 10-year distant metastasis-free survival: adjuvant tamoxifen. The experiment is classed as in vivo, human.
Experimental: To examine the value of Tau as predictor of survival after 5 years of adjuvant tamoxifen therapy, we used data provided by the Institut Jules Bordet. This included gene expression and survival data on 267 patients with ER-positive tumors treated with adjuvant tamoxifen. […] In all data sets, ER-status was determined from routine pathological assessment including immunohistochemistry or ER-ligand-binding assay for the older specimens. The cut-off for ER-positivity was 10 fmol/mg protein or >10% positive cells by immunohistochemistry.
This test was used because of the non-normal distribution of Tau. The prognostic value of Tau in untreated and tamoxifen-treated patients was assessed by examining the association between Tau expression and the occurrence of distant metastases using the Wilcoxon test. To assess if covariates including grade, tumor size and nodal status were associated with Tau levels we performed multivariate linear regression analysis. Kaplan-Meier survival curves were compared using the Log-rank test. In order to generate Kaplan-Meier curves, patients had to be assigned to various Tau expression groups. However, no cut off points have been established previously to assign low or high Tau status to cases based on microarray results. Furthermore, normalized expression values differed between the data sets, particularly for the prognostic data set that used different normalization procedure. In the absence of accepted cut off values and considering the non-normal expression distribution of Tau, we grouped patients by tertiles and quartiles.
Experiment [2] has as its system breast cancer cells. In words: Drug sensitivity of breast cancer cells after down regulation of Tau by siRNA. To be noted: cancer cells in vitro. The experiment is classed as cell-based. An excerpt:
Low expression of Tau is associated with known clinicopathological predictors of response to chemotherapy such as ER-negative status and high nuclear grade. However, in contrast to these predictors that are not treatment regimen-specific, low Tau may predict extreme sensitivity to a particular drug, paclitaxel. Since Tau is a microtubule associated protein, Tau has a mechanistic role in determining cellular response to paclitaxel, which is a microtubule poison.
The inventors have validated this association at the protein level on an independent set of patients (n=122) using immunohistochemistry. […] Tau partially protects cells from paclitaxel induced apoptosis by reducing paclitaxel binding to tubulin and reducing paclitaxel induced microtubule polymerization. […] As described herein, low levels of Tau mRNA expression as measured by, but not limited to, cDNA microarrays or Tau protein expression detected by immunohistochemistry, are associated with higher rates of pathologic CR to T/FAC pre-operative chemotherapy for stage I-III breast cancer. […] Pathologic CR in this context means complete eradication of the invasive cancer from the breast and lymph nodes by chemotherapy and has consistently been associated with excellent long-term survival that is independent of other tumor characteristics.

Setting [3] is: Tamoxifen treated group (n = 267).

Turning to `CC/C(=C(\c1ccccc1)c1ccc(OCCN(C)C)cc1)c1ccccc1` [tamoxifen], in experiment [1] (setting [3]), the “Metastases within 5 years: No, patients (%)” value is 160 (60%) and the “Metastases within 5 years: Yes, patients (%)” value is on record as 38 (14%). Further, the “10-year distant metastasis-free survival” value in experiment [1] (Tau mRNA levels <183) was determined as 65%. For the same compound, the “10-year distant metastasis-free survival” value in experiment [1] (Tau mRNA levels >183) amounted to 78%.
For `COc1cccc2c1C(=O)c1c(O)c3c(c(O)c1C2=O)C[C@@](O)(C(=O)CO)C[C@@H]3O[C@H]1C[C@H](N)[C@@H](O)[C@H](C)O1` [epirubicin], in experiment [2], the “change of sensitivity to the drug on down regulation of Tau with siRNA” value is “not to epirubicin”.
Same read-out and setting: under `CC(=O)O[C@H]1C(=O)[C@@]2(C)[C@H]([C@H](OC(=O)c3ccccc3)[C@]3(O)C[C@H](OC(=O)[C@H](O)[C@@H](NC(=O)c4ccccc4)c4ccccc4)C(C)=C1C3(C)C)[C@]1(OC(C)=O)CO[C@@H]1C[C@@H]2O` [paclitaxel] stands “increases their sensitivity”.
